One assay has as its target T1, human cloned 5-HT6 receptors (Homo sapiens, UniProt P50406).
T1 construct: expressed in transfected cells; host or cells: HeLa cells
As to the kind of experiment: 5-HT6 binding affinity, [3H]-LSD displacement on membranes of Hela cells.
Settings: not given
As for the experimental part: The affinity of test compounds for the 5-HT6 receptor is evaluated in the following manner. Cultured Hela cells expressing human cloned 5-HT6 receptors are harvested and centrifuged at low speed (1,000×g) for 10.0 min to remove the culture media. The harvested cells are suspended in half volume of fresh physiological phosphate buffered saline solution and recentrifuged at the same speed. This operation is repeated. The collected cells are then homogenized in ten volumes of 50 mM Tris.HCl (pH 7.4) and 0.5 mM EDTA. The homogenate is centrifuged at 40,000×g for 30.0 min and the precipitate is collected. The obtained pellet is resuspended in 10 volumes of Tris.HCl buffer and recentrifuged at the same speed. The final pellet is suspended in a small volume of Tris.HCl buffer and the tissue protein content is determined in aliquots of 10-25 microliter volumes. […] The volume of the suspended cell membranes is adjusted to give a tissue protein concentration of 1.0 mg/mL of suspension. The prepared membrane suspension (10 times concentrated) is aliquoted in 1.0 mL volumes and stored at −70° C. until used in subsequent binding experiments.
Binding experiments are performed in a 96 well microtiter plate format in a total volume of 200 microliters. […] The test compounds are added in 20.0 microliter volume.
The bound complex caught on the filter disk is allowed to air dry and the radioactivity is measured in a Packard TopCount® equipped with six photomultiplier detectors, after the addition of 40.0 microliter Microscint®-20 scintillant to each shallow well.
Binding in the presence of varying concentrations of test compound is expressed as a percentage of specific binding in the absence of test compound. The results are plotted as log % bound versus log concentration of the test compound.
T1 sequence (P50406 whole entry): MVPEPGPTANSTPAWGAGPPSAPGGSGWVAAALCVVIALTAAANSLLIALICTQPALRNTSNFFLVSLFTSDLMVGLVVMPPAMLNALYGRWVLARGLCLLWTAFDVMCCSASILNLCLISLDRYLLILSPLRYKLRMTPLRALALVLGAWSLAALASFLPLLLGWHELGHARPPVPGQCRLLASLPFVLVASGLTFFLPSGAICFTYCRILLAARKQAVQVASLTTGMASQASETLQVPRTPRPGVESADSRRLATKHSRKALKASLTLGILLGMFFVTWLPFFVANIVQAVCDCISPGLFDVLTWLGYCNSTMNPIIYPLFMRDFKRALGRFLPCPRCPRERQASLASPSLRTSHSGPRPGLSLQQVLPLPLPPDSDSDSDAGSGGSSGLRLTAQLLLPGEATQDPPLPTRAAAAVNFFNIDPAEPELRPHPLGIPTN
In the case of `CCNCCc1ccc2c(S(=O)(=O)c3ccccc3)c[nH]c2c1` [Example 88, N-ethyl-N-{2-[3-(phenylsulfonyl)-1H-indol-6-yl]ethyl}amine], affinity was put at a Ki of 96.3 nM.

Still in this assay, the particulars now being: Table 1; 5-HT6 binding, at 1 micromole; read-out: % inhibition at 1 micromole.
As for `CCN(CC)CCc1cccc2[nH]cc(S(=O)(=O)c3cccc(F)c3)c12` [Example 73, N,N-diethyl-N-{2-[3-(3-fluorophenylsulfonyl)-1H-indol-4-yl]ethyl}amine], the inhibition at 1 µM is 78%. Still for that read-out and setting: as for `O=S(=O)(c1cccc(F)c1)c1c[nH]c2cccc(CCN3CCCCC3)c12` [Example 75, 3-(3-fluorophenylsulfonyl)-4-(2-piperidin-1-ylethyl)-1H-indole], the figure is 69%. The same measure, in the same setting: then `O=S(=O)(c1cccc(F)c1)c1c[nH]c2cccc(CCN3CCOCC3)c12` [Example 76, 4-(2-morpholin-4-ylethyl)-3-(3-fluorophenylsulfonyl)-1H-indole], with 62%; and `CC(C)(C)CNCCc1cccc2[nH]cc(S(=O)(=O)c3cccc(F)c3)c12` [Example 81, N-(2,2-dimethylpropyl)-N-{2-[3-(3-fluorophenylsulfonyl)-1H-indol-4-yl]ethyl}amine], with 74%; and `O=S(=O)(c1cccc(F)c1)c1c[nH]c2cccc(CCNCC3CCCO3)c12` (centres unmarked) [Example 82, N-{2-[3-(3-fluorophenylsulfonyl)-1H-indol-4-yl]ethyl}-N-((tetrahydrofur-2-yl)methyl)amine], with 72%. The same measure, in the same setting: as for `CN(C)CCCNCCc1cccc2[nH]cc(S(=O)(=O)c3cccc(F)c3)c12` [Example 83, N′-{2-[3-(3-Fluorophenylsulfonyl)-1H-indol-4-yl]-ethyl}-N,N-dimethyl-propane-1,3-diamine], the figure is 42%. For `CN(CCO)CCc1cccc2[nH]cc(S(=O)(=O)c3cccc(F)c3)c12` [Example 84, 2-({2-[3-(3-Fluorophenylsulfonyl)-1H-indol-4-yl]-ethyl}-methyl-amino)-ethanol], the inhibition at 1 µM was 73%.

Consider `CC(C)NCCc1ccc2c(S(=O)(=O)c3ccccc3)c[nH]c2c1` [Example 90, N-{2-[3-(phenylsulfonyl)-1H-indol-6-yl]ethyl}propan-2-amine], for which the inhibition at 1 µM is 78%. Same read-out and setting: then `O=S(=O)(c1ccccc1)c1c[nH]c2cc(CCNC3CCC3)ccc12` [Example 92, N-{2-[3-(phenylsulfonyl)-1H-indol-6-yl]ethyl}cyclobutanamine], with 75%.

`O=S(=O)(c1ccccc1)c1c[nH]c2cc(CCNC3CCCC3)ccc12` [Example 93, N-{2-[3-(phenylsulfonyl)-1H-indol-6-yl]ethyl}cyclopentanamine]: the inhibition at 1 µM turned out to be 71%. Still for that read-out and setting: as for `O=S(=O)(c1ccccc1)c1c[nH]c2cc(CCNC3CCCCC3)ccc12` [Example 94, N-{2-[3-(phenylsulfonyl)-1H-indol-6-yl]ethyl}cyclohexanamine], the figure is 51%; as for `CN(CCc1ccc2c(S(=O)(=O)c3ccccc3)c[nH]c2c1)C1CCCCC1` [Example 96, N-cyclohexyl-N-methyl-N-{2-[3-(phenylsulfonyl)-1H-indol-6-yl]ethyl}amine], 75%. Regarding `O=S(=O)(c1ccccc1)c1c[nH]c2cc(CCN3CCCC3)ccc12` [Example 98, 3-(phenylsulfonyl)-6-(2-pyrrolidin-1-ylethyl)-1H-indole], the inhibition at 1 µM turned out to be 76%. As to `O=S(=O)(c1ccccc1)c1c[nH]c2cc(CCN3CCCCC3)ccc12` [Example 99, 3-(phenylsulfonyl)-6-(2-piperidin-1-ylethyl)-1H-indole], the inhibition at 1 µM is 79%. For the molecule `O=S(=O)(c1ccccc1)c1c[nH]c2cccc(CCC3CNCCO3)c12` (centres unmarked) [Example 100, 4-(2-morpholin-6-ylethyl)-3-(phenylsulfonyl)-1H-indole], the inhibition at 1 µM turned out to be 54%.

For the molecule `O=S(=O)(c1ccccc1)c1c[nH]c2cc(CCN3CCNCC3)ccc12` [Example 101, 3-phenylsulfonyl-6-(2-piperazin-1-yl-ethyl)-1H-indole], the inhibition at 1 µM is 55%.

`CC(C)CNCCc1ccc2c(S(=O)(=O)c3ccccc3)c[nH]c2c1` [Example 102, N-isobutyl-N-{2-[3-(phenylsulfonyl)-1H-indol-6-yl]ethyl}amine]: the inhibition at 1 µM was 72%. Same read-out and setting: as for `CCC(CC)NCCc1ccc2c(S(=O)(=O)c3ccccc3)c[nH]c2c1` [Example 103, (1-Ethyl-propyl)-{2-[3-(phenylsulfonyl)-1H-indol-6-yl]-ethyl}-amine], the figure is 63%; as for `CCC(C)CNCCc1ccc2c(S(=O)(=O)c3ccccc3)c[nH]c2c1` (centres unmarked) [Example 104, {2-[3-(phenylsulfonyl)-1H-indol-6-yl]-ethyl}-(2-methyl-butyl)-amine], 69%.

Staying with this assay, now noted: Table 1; [3H]-LSD 3.0 nM, Hela cell membranes; read-out: Ki (nM) @ 5-HT6 receptor.
As for `O=S(=O)(c1cccc(F)c1)c1c[nH]c2cccc(CCN3CCCC3)c12` [Example 74, 3-(3-fluorophenylsulfonyl)-4-(2-pyrrolidin-1-ylethyl)-1H-indole], the Ki came to 72 nM. Still for that read-out and setting: then `CC(C)CNCCc1cccc2[nH]cc(S(=O)(=O)c3cccc(F)c3)c12` [Example 77, N-isobutyl-N-{2-[3-(3-fluorophenylsulfonyl)-1H-indol-4-yl]ethyl}amine], with 14 nM; and `CCC(CC)NCCc1cccc2[nH]cc(S(=O)(=O)c3cccc(F)c3)c12` [Example 78, (1-Ethyl-propyl)-{2-[3-(3-fluorophenylsulfonyl)-1H-indol-4-yl]-ethyl}-amine], with 80 nM. For `CCC(C)CNCCc1cccc2[nH]cc(S(=O)(=O)c3cccc(F)c3)c12` (centres unmarked) [Example 79, {2-[3-(3-Fluorophenylsulfonyl)-1H-indol-4-yl]-ethyl}-(2-methyl-butyl)-amine], the Ki is 120 nM.

With `CC(NCCc1cccc2[nH]cc(S(=O)(=O)c3cccc(F)c3)c12)C(C)(C)C` (centres unmarked) [Example 80, N-{2-[3-(3-fluorophenylsulfonyl)-1H-indol-4-yl]ethyl}-N-(1,2,2-trimethylpropyl)amine], the Ki worked out at 13 nM. Same read-out and setting: then `NCCc1cccc2[nH]cc(S(=O)(=O)c3cccc(F)c3)c12` [Example 85, {2-[3-(3-fluorophenylsulfonyl)-1H-indol-4-yl]ethyl}amine], with 348 nM; and `CN(C)CCc1ccc2c(S(=O)(=O)c3ccccc3)c[nH]c2c1` [Example 86, N,N-dimethyl-N-{2-[3-(phenylsulfonyl)-1H-indol-6-yl]ethyl}amine], with 41.3 nM; and `CNCCc1ccc2c(S(=O)(=O)c3ccccc3)c[nH]c2c1` [Example 87, N-methyl-N-{2-[3-(phenylsulfonyl)-1H-indol-6-yl]ethyl}amine], with 10.5 nM.

On to `CCCNCCc1ccc2c(S(=O)(=O)c3ccccc3)c[nH]c2c1` [Example 89, N-{2-[3-(phenylsulfonyl)-1H-indol-6-yl]ethyl}-N-propylamine], for which the Ki amounted to 150 nM. On the same count and under the same terms, then `O=S(=O)(c1ccccc1)c1c[nH]c2cc(CCNC3CC3)ccc12` [Example 91, N-{2-[3-(phenylsulfonyl)-1H-indol-6-yl]ethyl}cyclopropanamine], with 41 nM; and `CCN(C)CCc1ccc2c(S(=O)(=O)c3ccccc3)c[nH]c2c1` [Example 95, N-ethyl-N-methyl-N-{2-[3-(phenylsulfonyl)-1H-indol-6-yl]ethyl}amine], with 118 nM; and `CCN(CC)CCc1ccc2c(S(=O)(=O)c3ccccc3)c[nH]c2c1` [Example 97, N,N-diethyl-N-{2-[3-(phenylsulfonyl)-1H-indol-6-yl]ethyl}amine], with 12.3 nM.

One may read the Ki as a measure of affinity in units of concentration, obtained from inhibition or displacement. Broadly, the inhibition is the relative decrease from the control value, in per cent.

The values are drawn from patent publication US7645752B2, “Sulfonyl substituted 1H-indoles as ligands for the 5-hydroxytryptamine receptors” (Wyeth LLC, priority 2006, dated 2010).
